Experiments:
bovine brain tubulin [1] = assay: Inhibition of [3H]colchicine binding; conditions: Mean ± SEM, N = 9
Description: Using methods described previously (Verdier-Pinard P, Lai J-Y, Yoo H-D, Yu J, Marquez B, Nagle DG, Nambu M, White JD, Falck JR, Gerwick WH, Day BW and Hamel E (1998) Structure-activity analysis of the interaction of curacin A, the potent colchicine site antimitotic agent, with tubulin and effects of analogs on the growth of MCF-7 breast cancer cells. Mol Phannacol 53:62-76.). 5,μM [^3H]colchicine was incubated with either 5% DMSO vehicle or compound (5 or 50 μM) at 37° C. for 15 min with 1 μM tubulin in the presence of 1 M monosodium glutamate, 0.1 M glucose-1-phosphate, 1 mM MgCl2, 1 mM GTP and 0.5 mg/ml bovine serum albumin. The solutions were filtered through two stacks of DEAE-cellulose filters and the radioactivity in the filtrate was determined by liquid scintillation spectrometry. Each series of determinations included positive controls of 5 and 50 μM curacin A. The inventors found no evidence that SR-7 could bind to the colchicine site of tubulin. […] The inventors propose that SR-7 may act at another site such as the previously characterized vinca alkaloid site.

bovine brain tubulin [2] = assay: GTP-induced tubulin assembly (turbidity); assay type: biochemical
Description: Tubulin without microtubule-associated proteins was isolated from fresh bovine brains (Hamel E and Lin CM (1984). Separation of active tubulin and microtubule-associated proteins by ultracentrifugation and isolation of a component causing the formation of microtubule bundles. Biochemistry 23:4173-4184). Inhibition of assembly reactions was carried out as described previously (Verdier-Pinard P, Lai J-Y, Yoo H-D, Yu J, Marquez B, Nagle DG, Nambu M, White JD, Falck JR, Gerwick WH, Day BW and Hamel E (1998) Structure-activity analysis of the interaction of curacin A, the potent colchicine site antimitotic agent, with tubulin and effects of analogs on the growth of MCF-7 breast cancer cells. Mol Pharmacol 53:62-76.).
The inventors examined the ability of SR-7 to alter tubulin polymerization or depolymerization in vitro. FIG. 28, Panel A. Compounds (predissolved in DMSO) were preincubated with tubulin containing monosodium glutamate at 30 ° C. for 15 min. Samples were cooled to 0 ° C. and GTP was added. Samples were placed in a temperature-controlled multi-cuvette holder of a spectrophotometer held at 0 ° C. Baselines were established and temperature was rapidly raised to 30 ° C. Turbidity development in the cuvettes was measured at 350 nm. FIG. 28, Panel B. Compounds were added to the tubulin plus monosodium glutamate mixture at 0 ° C., placed in the spectrophotometer and temperature was raised to 30 ° C. Addition of 0.4 mM GTP to isolated bovine brain tubulin produced robust polymerization that began to plateau approximately 20 min after microtubule assembly commenced (Panel A).

Bcl-2 = Bcl-2 phosphorylation immunoblot in MCF-7 cells; assay type: cell-based, human
Description: Attempts to determine the phosphorylation status of Bcl-2 in tsFT210 cells using two different antibodies were unsuccessful due to the antibodies' inability to detect mouse Bcl-2 or the lack of specificity. Therefore, phosphorylated and non-phosphorylated Bcl-2 was detected in lysates from human MCF-7 cells (American Type Culture Collection, Manassas, Va.) treated with microtubule perturbing agents. Equal amounts of protein were separated by electrophoresis on 15% SDS-PAGE followed by immunoblotting with an antihuman Bcl-2 antibody (sc-509, Santa Cruz Biotechnology). Positive antibody reactions were visualized using peroxidase-conjugated secondary antibodies (Jackson ImmunoResearch, West Grove, Pa.) and an enhanced chemiluminescence detection system (Renaissance, NEN, Boston, Mass.) according to manufacturer's instructions.
All known microtubule disrupting compounds cause hyperphosphorylation of the antiapoptotic protein Bcl-2 (Haldar S, Jena N and Croce CM (1995) Inactivation of bcl-2 by phospliorylation. Proc Natl Acad Sci USA 92:4507-4511 and Basu A and Haldar S (1998) Microtubule-damaging drugs trigger bcl2 phosphorylation-requirement of phosphorylation on both serine-70 and serine-87 residues of bcl2 protein. Intl J Oncol 13:659-664). Therefore, the phosphorylation status of Bcl-2 in cells treated with various compounds including SR-7 was examined and the results are illustrated in FIG. 29. Proteins from lysates of MCF-7 cells treated with 0.5 μM paclitaxel, 1 μM nocodozole, 1,μM vincristine and, 3 or 10 μM SR-7 were separated by electrophoresis on 15% SDS-PAGE followed by immunoblotting with an antibody to Bcl-2. The phosphorylated form of Bcl-2 (P) appeared as the upper bands and the underphosphorylated form (U) was the lower band.

fungi = conditions: cited from earlier work
Cdk1 = assay: Western blotting for Cdk1 phosphorylation status in tsFT210 cells; assay type: cell-based, mouse; conditions: 6 hours
Description: tsFT210 cells were harvested using the same procedure for cell synchronizing and drug exposure as described above for the G2/M flow cytometric analysis. The protein lysates were analyzed by Western blotting for Cdk1 as described previously (Tamura K, Southwick EC, Kerns J, Rosi K, Carr BI, Wilcox C and Lazo JS (2000) Cdc25 inhibition and cell cycle arrest by a synthetic thioalkyl vitamin K analogue. Cancer Res 60:1317-1325.). The inventors used Cdk1 isolated from human MCF-7 cells to assay for in vitro inhibition of enzyme activity because of available antibodies and convenience. Asynchronous cells grown at 37° C. in 5% CO2 in DMEM containing 10% fetal bovine serum were treated with lysis buffer and harvested as previously described (Vogt A, Wang AS, Johnson CS, Fabisiak JP, Wipf P and Lazo JS (2000) In vivo antitumor activity and induction of insulin-like growth factor-1 resistant apoptosis by SC-ααδ9. J Pharmacol Exptl Therap 292:530-537.). Cdk1 kinase activity assay was performed as previously described (Yu L, Orlandi L, Wang P, Orr MS, Senderowicz AM, Sausville EA, Silvestrini R, Watanabe N, Piwnica-Worms H, O° Connor PM (1998) UCN-01 arogates G2 arrest through a Cdc2-dependent pathway that is associated with inactivation of the WeelHu kinase and activation of the Cdc25C phosphatase. J Biol Chem 273: 33455-33464.). […] Histone H1 was separated from other proteins by SDS-PAGE and analyzed for incorporation of radioactive phosphate with a Molecular Dynamics STORM 860 Phospholmager (Sunnyvale, CA).
The major controlling molecule for G2/M transition is the cyclin dependent kinase, Cdk1, whose cellular activity is tightly regulated by phosphorylation (Pines J (1999) Four-dimensional control of the cell cycle. Nature Cell Biol 1:E73-79., Hunter T and Pines J (1994) Cyclins and cancer II: cyclin D and CDK inhibitors come of age. Cell 79:573-582). […] The protein lysates were analyzed by Western blotting for Cdk1 content and phosphorylation status as described elsewhere herein. […]

tsFT210 cells [3] = assay: Flow cytometry, G2/M arrest in tsFT210 cells; assay type: cell-based, mouse; conditions: 6 hours
Description: Oncogene 18:6989-6996, Th′ng JP, Wright PS, Hamaguchi J, Lee MG, Norbury CJ, Nurse P and Bradbury EM (1990) The FT210 cell line is a mouse G2 phase mutant with a temperature-sensitive CDC2 gene product. Cell 63:313-324.). Cell proliferation was blocked at G2 phase by incubation at 39.4° C. for 17 h. The synchronized cells were then released by re-incubating at 32.0° C. and treated immediately with 0-10 μM SR-7, 1 μM nocodazole or 100 EM SC-ααδ9, respectively, to probe for G2/M arrest. […] The harvested cells were stained with a solution containing 50 μg/ml propidium iodide and 250 μg/ml RNase A. Flow cytometry analysis was conducted with a Becton Dickinson FACS Star (Franklin Lakes, N.J.). […] This G2/M retention at 4C is probably due to the extended cell cycle blockage at 39.4° C. (Osada H, Cui CB, Onose R and Hanaoka F (1997) Screening of cell cycle inhibitors from microbial metabolites by a bioassay using a mouse cdc2 mutant cell line, tsFT210. Bioorg Med Chem 5:193-203). […] SC-ααδ9 is an inhibitor of the Cdc25 family of phosphatases that controls cell cycle checkpoints (Rice RL, Rusnak JM, Yokokawa F, Yokokawa S, Messner DJ, Boynton AL, Wipf P and Lazo JS (1997) A targeted library of small molecule, tyrosine and dual specificity phosphatase inhibitors derived from a rational core design and random side chain variation. Biochemistry 36:15965-15974).

tsFT210 cells [4] = assay: Flow cytometry, G1 transition in tsFT210 cells; assay type: cell-based, mouse; conditions: 100 μM, additional 6 hours

## C=CC[C@@H](CC/C(C)=C/C=C/CC/C=C\[C@@H]1CSC([C@@H]2C[C@@H]2C)=N1)OC [curacin A]
Bovine brain tubulin [1]; 5 μM compound, 5 µM
  Percent inhibition of [3H]colchicine binding: ~90%
Bovine brain tubulin [1]; 5 μM compound, listed as Curacin A, 5 µM
  Percent inhibition of [3H]colchicine binding: 89.8 ± 0.6%
Bovine brain tubulin [1]; 50 μM compound
  Percent inhibition of [3H]colchicine binding: 97.3 ± 3.1%
Bovine brain tubulin [2]; 1 μM
  inhibition of GTP-induced tubulin assembly: 50%
Bovine brain tubulin [2]; 5 μM
  inhibition of GTP-induced tubulin assembly: completely inhibited GTP-induced tubulin assembly

## CC[C@]1(O)C[C@H]2CN(CCc3c([nH]c4ccccc34)[C@@](C(=O)OC)(c3cc4c(cc3OC)N(C=O)[C@H]3[C@@](O)(C(=O)OC)[C@H](OC(C)=O)[C@]5(CC)C=CCN6CC[C@]43[C@@H]65)C2)C1 [vincristine]
Bcl-2; 1 μM vincristine
  Bcl-2 phosphorylation: caused prominent phosphorylation of Bcl-2

## O=C1CC[C@@H](O)[C@@H]2C1=C(O)C=CC21Oc2cccc3cccc(c23)O1 [Palmarumycin CP4]
fungi
  antifungal activity: high antifungal activity

## COC(=O)Nc1nc2cc(C(=O)c3cccs3)ccc2[nH]1 [nocodazole]
Cdk1; 1 μM
  Cdk1 phosphorylation status: no hyperphosphorylation of Cdk1 was seen
Bcl-2; 1 μM nocodozole
  Bcl-2 phosphorylation: caused prominent phosphorylation of Bcl-2
tsFT210 cells [3]; 1 μM
  G2/M cell cycle transition: blocked cell passage through G2/M

## Oc1ccc(O)c2c1[C@H](O)[C@@H]1O[C@@H]1C21Oc2cccc3cccc(c23)O1 [Palmarumycin C12]
fungi
  antifungal activity: high antifungal activity

## O=C1C=CC(=O)[C@@]23O[C@@]12C1(Oc2cccc4cccc(c24)O1)[C@@H]1O[C@@H]1[C@@H]3O [Palmarumycin C10]
fungi
  antifungal activity: high antifungal activity

## CC(=O)O[C@H]1C(=O)[C@@]2(C)[C@H]([C@H](OC(=O)c3ccccc3)[C@]3(O)C[C@H](OC(=O)[C@H](O)[C@@H](NC(=O)c4ccccc4)c4ccccc4)C(C)=C1C3(C)C)[C@]1(OC(C)=O)CO[C@@H]1C[C@@H]2O [paclitaxel]
Bcl-2; 0.5 μM
  Bcl-2 phosphorylation: caused prominent phosphorylation of Bcl-2

## CCCCCCCCCC(=O)NC(CCC(=O)N(CCNC(=O)c1nc(-c2ccccc2)oc1-c1ccccc1)Cc1ccccc1)C(=O)O (stereo not drawn) [SC-ααδ9, 4-(benzyl-(2-[ (2,5-diphenyl-oxazole-4-carbonyl)-amino]-ethyl)-carbamoyl)-2-decanoylamino butyric acid, reference compound]
Cdk1; 100 IM, lane 8
  Cdk1 phosphorylation status: yielded a hyperphosphorylated Cdk1
tsFT210 cells [3]; 100 μM, Panel I
  G2/M cell cycle transition: G2/M inhibition
tsFT210 cells [4]
  G1 transition: caused a prominent G1 block

## O=C1c2c(O)ccc(O)c2C2(Oc3cccc4cccc(c34)O2)[C@@H]2O[C@H]12 [Palmarumycin C3]
fungi
  antifungal activity: high antifungal activity
